Assay results: PMC12692169, “Identification of Novel TAT-I24-Related Peptides with Antiviral Activities” (International Journal of Molecular Sciences, 2025)
Where two headings read alike, the source gives them in different places. Positions of bridges follow the written chain, without caps; N, C: chain ends. Residues, ends and D or L forms follow the SMILES beside them. No end group written: not given here.

How the values were obtained:
red blood cells (RBC) [1] = assay: RBC swelling (enlarged pellet after centrifugation); conditions: peptides diluted in PBS (absence of serum), up to 20 µM, 1 h, pellet size after centrifugation
[2] = test system: mouse cytomegalovirus (MCMV)/NIH/3T3 cells; conditions: 72 h
plasmid-DNA (dsDNA) = assay: Fluorescence-based dsDNA-binding assay (SYBR Gold, plasmid DNA); conditions: TAT-I24 as reference, three independent experiments in duplicates
Description: We also included the TAT peptide, which binds DNA [34, 35].
Peptides were incubated with plasmid-DNA in the presence of SYBR^TM Gold dye. Reduction in fluorescence indicates binding of peptides to DNA. […] Curve fitting was performed using GraphPad Prism software.
DNA binding assay was performed, as described previously [26].

Baculovirus/HEK293 = conditions: for IC50: 24 h; for fold higher IC50 value compared to TAT-I24, baculovirus-transduced HEK293 cells: ratio to TAT-I24 IC50
red blood cells (RBC) [3] = conditions: RBC 1 h 37 °C; for haemolysis: OD 450 nm of supernatant
Description: Figure 4 Effect of peptides on haemolysis and RBC swelling. (A,B) RBCs were isolated and treated in conical 96-well plates with peptides diluted in PBS or in 10% donor serum for one hour. OD [450 nm] was determined in the supernatants after centrifugation of the plates. Mean ± SD from two experiments in triplicates are shown. […] Dashed lines indicate background OD. (C) Swelling of RBC after treatment with dilutions of peptides in PBS for one hour and centrifugation of the plates. Red wells indicate an enlarged cell pellet due to swelling of the RBCs. Sequences of the peptides are shown at the right and are indicated in red with the TAT fusion partner indicated in blue.
Whole blood was collected from a healthy volunteer after informed consent by venipuncture into K2E K2EDTA VacuetteTM tubes (Greiner Bio-One, Kremsmünster, Austria) with 4 mL blood. The assay for haemolysis was adapted from Sæbo et al. and performed as described previously. In brief, blood was centrifuged at 1000× g for 10 min, and plasma kept for further use, followed by resuspension of red blood cells (RBC) in PBS and centrifugation for three times. RBC were seeded at a cell number of 1 × 10^7 cells/100 µL PBS per well into conical 96-well plates (ThermoFisher, Darmstadt, Germany) and incubated with 100 µL of 1:2 peptide dilutions starting from 40 µM either in PBS or 10% donor serum. Plates were incubated at 37 °C for one hour before at 1000× g for 5 min. Supernatants were then transferred to flat 96-well plates and optical density (OD) was determined at 450 nm using a Glo-Max®-Multi Detection System (Promega, Mannheim, Germany). As positive control, cells were lysed with 0.5% Triton X-100. Images from centrifuged plates were taken using a Kodak PIXPRO camera (Rochester, NY, USA).

[4] = test system: DiO-labelled MCMV in NIH/3T3 cells; conditions: previous study; cited from earlier work
Excerpt: In contrast, the peptide TAT-M214, whi ...

Row | Compound | RBC swelling (red blood cells (RBC) [1]) | IC50 [2] [µM] | dsDNA-binding (reduction in SYBR Gold fluorescence) (plasmid-DNA (dsDNA)) | IC50 (Baculovirus/HEK293) [µM] | haemolysis (red blood cells (RBC) [3]; 2.5 µM peptide diluted in PBS) [%] | haemolysis (red blood cells (RBC) [3]; 5 µM peptide diluted in PBS) [%] | haemolysis (red blood cells (RBC) [3]; 10 µM peptide diluted in PBS) [%] | haemolysis (red blood cells (RBC) [3]; 20 µM peptide diluted in PBS, two experiments in triplicates) [%] | haemolysis in the presence of 10% serum (red blood cells (RBC) [3]; peptide diluted in 10% donor serum) | fold higher IC50 value compared to TAT-I24, baculovirus-transduced HEK293 cells (Baculovirus/HEK293) | effect on localization of DiO-labelled MCMV [4]
1 | CC(C)C[C@H](NC(=O)[C@H](CS)NC(=O)[C@H](C)NC(=O)[C@H](Cc1ccc(O)cc1)NC(=O)[C@H](Cc1ccccc1)NC(=O)[C@H](C)NC(=O)[C@H](CC(C)C)NC(=O)[C@H](CCC(N)=O)NC(=O)[C@@H]1CCCN1C(=O)[C@@H]1CCCN1C(=O)[C@H](CCCNC(=N)N)NC(=O)[C@H](CCCNC(=N)N)NC(=O)[C@H](CCCNC(=N)N)NC(=O)[C@H](CCC(N)=O)NC(=O)[C@H](CCCNC(=N)N)NC(=O)[C@H](CCCNC(=N)N)NC(=O)[C@H](CCCCN)NC(=O)[C@H](CCCCN)NC(=O)[C@H](CCCNC(=N)N)NC(=O)CN)C(=O)N[C@@H](C)C(=O)N[C@@H](Cc1ccccc1)C(=O)N[C@@H](CS)C(=O)O [TAT-M14] (H-GRKKRRQRRRPPQLAFYACLAFC-OH; N-terminus and C-terminus assumed) | caused RBC swelling at higher concentrations | 2.57 | bind dsDNA | 0.034 | – | – | – | – | – | – | –
2 | CC(C)C[C@H](NC(=O)[C@H](C)NC(=O)[C@H](Cc1ccc(O)cc1)NC(=O)[C@H](Cc1ccccc1)NC(=O)[C@H](C)NC(=O)[C@H](CC(C)C)NC(=O)[C@H](Cc1ccc(O)cc1)NC(=O)[C@@H]1CCCN1C(=O)[C@H](CCCNC(=N)N)NC(=O)[C@H](CCCNC(=N)N)NC(=O)[C@H](CCCNC(=N)N)NC(=O)[C@H](CCC(N)=O)NC(=O)[C@H](CCCNC(=N)N)NC(=O)[C@H](CCCNC(=N)N)NC(=O)[C@H](CCCCN)NC(=O)[C@H](CCCCN)NC(=O)[C@H](CCCNC(=N)N)NC(=O)CN)C(=O)N[C@@H](C)C(=O)N[C@@H](Cc1ccccc1)C(=O)N[C@@H](Cc1ccc(O)cc1)C(=O)N[C@@H](C)C(=O)N[C@@H](CS)C(=O)O [TAT-M214] (H-GRKKRRQRRRPYLAFYALAFYAC-OH) | caused RBC swelling at higher concentrations | 3.67 | – | 0.025 | 14 | 29 | 37 | 43 | not in the presence of 10% serum | – | –
3 | CC(C)C[C@H](NC(=O)[C@H](CO)NC(=O)[C@H](CC(C)C)NC(=O)[C@H](CCC(N)=O)NC(=O)[C@H](CS)NC(=O)[C@H](CCC(N)=O)NC(=O)[C@@H]1CCCN1C(=O)[C@@H]1CCCN1C(=O)[C@H](CCCNC(=N)N)NC(=O)[C@H](CCCNC(=N)N)NC(=O)[C@H](CCCNC(=N)N)NC(=O)[C@H](CCC(N)=O)NC(=O)[C@H](CCCNC(=N)N)NC(=O)[C@H](CCCNC(=N)N)NC(=O)[C@H](CCCCN)NC(=O)[C@H](CCCCN)NC(=O)[C@H](CCCNC(=N)N)NC(=O)CN)C(=O)N[C@@H](C)C(=O)N1CCC[C@H]1C(=O)N[C@@H](Cc1ccc(O)cc1)C(=O)N[C@@H](CS)C(=O)O [TAT-M42] (H-GRKKRRQRRRPPQCQLSLAPYC-OH; N-terminus and C-terminus assumed) | did not cause RBC swelling in the absence of serum even at 20 µM | – | less dsDNA-binding | 0.378 | – | – | – | – | – | approximately 20 fold | –
4 | CC(C)C[C@H](NC(=O)[C@H](CO)NC(=O)[C@H](CS)NC(=O)[C@H](CCC(N)=O)NC(=O)[C@@H]1CCCN1C(=O)[C@@H]1CCCN1C(=O)[C@H](CCCNC(=N)N)NC(=O)[C@H](CCCNC(=N)N)NC(=O)[C@H](CCCNC(=N)N)NC(=O)[C@H](CCC(N)=O)NC(=O)[C@H](CCCNC(=N)N)NC(=O)[C@H](CCCNC(=N)N)NC(=O)[C@H](CCCCN)NC(=O)[C@H](CCCCN)NC(=O)[C@H](CCCNC(=N)N)NC(=O)CN)C(=O)N[C@@H](C)C(=O)N1CCC[C@H]1C(=O)N[C@@H](C)C(=O)N[C@@H](CC(N)=O)C(=O)N[C@H](C(=O)N[C@@H](CS)C(=O)O)[C@@H](C)O [TAT-M43] (H-GRKKRRQRRRPPQCSLAPANTC-OH; N-terminus and C-terminus assumed) | did not cause RBC swelling in the absence of serum even at 20 µM | – | less dsDNA-binding | 0.306 | – | – | – | – | – | approximately 20 fold | –
5 | CLAFYACF (disulfide 1-7 (inferred)) [C22del_cyc, TAT-I24 with a cyclized I24 peptide (CLAFYACF), cyclized via the two cysteine residues; previous study] | – | – | – | – | – | – | – | – | – | – | no effect on localization of DiO-labelled MCMV
6 | CC(C)C[C@H](NC(=O)[C@H](CCC(N)=O)NC(=O)[C@@H]1CCCN1C(=O)[C@H](CO)NC(=O)[C@H](CS)NC(=O)[C@H](CCC(N)=O)NC(=O)[C@@H]1CCCN1C(=O)[C@@H]1CCCN1C(=O)[C@H](CCCNC(=N)N)NC(=O)[C@H](CCCNC(=N)N)NC(=O)[C@H](CCCNC(=N)N)NC(=O)[C@H](CCC(N)=O)NC(=O)[C@H](CCCNC(=N)N)NC(=O)[C@H](CCCNC(=N)N)NC(=O)[C@H](CCCCN)NC(=O)[C@H](CCCCN)NC(=O)[C@H](CCCNC(=N)N)NC(=O)CN)C(=O)N[C@@H](C)C(=O)N1CCC[C@H]1C(=O)N[C@@H](Cc1ccccc1)C(=O)N[C@@H](CS)C(=O)O [TAT-M41] (H-GRKKRRQRRRPPQCSPQLAPFC-OH; N-terminus and C-terminus assumed) | did not cause RBC swelling in the absence of serum even at 20 µM | – | less dsDNA-binding | 0.434 | – | – | – | – | – | approximately 20 fold | –
